According to PubChem BioAssay AID2060497 (Molecular Pharmacology Branch, DTP, NCI, 2025):
pIC50: −log10 of the molar value.

Test system: 317291-083-R-J1-PDC complex spheroids, viability
Assay: Anticancer human tumor 317291-083-R-J1-PDC patient-derived soft tissue sarcoma cell line growth inhibition [GQUAD]
Conditions: for pIC50: curve of first compound; for viability, T/C: stronger effect = lower value
Outline: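 Multi-cell-type spheroids of tumor cells with HUVEC and mesenchymal stem cells, treated with drug combinations. Concentrations descend in half-log steps from near clinical Cmax, or from 10 microM where Cmax is unknown; viability read-out.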

[1] = second compound 0.0316 µM, first compound 0.0316 µM
[2] = second compound 0.0316 µM, first compound 0.1 µM
[3] = second compound 0.0316 µM, first compound 0.316 µM
[4] = second compound 0.0316 µM, first compound 1 µM
[5] = second compound 0.0316 µM, first compound 3.16 µM
[6] = second compound 0.0316 µM, first compound 10 µM
[7] = second compound 0.1 µM, first compound 0.0316 µM
[8] = second compound 0.1 µM, first compound 0.1 µM
[9] = second compound 0.1 µM, first compound 0.316 µM
[10] = second compound 0.1 µM, first compound 1 µM
[11] = second compound 0.1 µM, first compound 3.16 µM
[12] = second compound 0.1 µM, first compound 10 µM
[13] = second compound 0.316 µM, first compound 0.0316 µM
[14] = second compound 0.316 µM, first compound 0.1 µM
[15] = second compound 0.316 µM, first compound 0.316 µM
[16] = second compound 0.316 µM, first compound 1 µM
[17] = second compound 0.316 µM, first compound 3.16 µM
[18] = second compound 0.316 µM, first compound 10 µM
[19] = second compound 1 µM, first compound 0.0316 µM
[20] = second compound 1 µM, first compound 0.1 µM
[21] = second compound 1 µM, first compound 0.316 µM
[22] = second compound 1 µM, first compound 1 µM
[23] = second compound 1 µM, first compound 3.16 µM
[24] = second compound 1 µM, first compound 10 µM
[25] = second compound 3.16 µM, first compound 0.0316 µM
[26] = second compound 3.16 µM, first compound 0.1 µM
[27] = second compound 3.16 µM, first compound 0.316 µM
[28] = second compound 3.16 µM, first compound 1 µM
[29] = second compound 3.16 µM, first compound 3.16 µM
[30] = second compound 3.16 µM, first compound 10 µM
[31] = second compound 10 µM, first compound 0.0316 µM
[32] = second compound 10 µM, first compound 0.1 µM
[33] = second compound 10 µM, first compound 0.316 µM
[34] = second compound 10 µM, first compound 1 µM
[35] = second compound 10 µM, first compound 3.16 µM
[36] = second compound 10 µM, first compound 10 µM
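Further: spheroids exposed to compounds for one week before readout.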
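Wherever viability, T/C is given: percent viability relative to DMSO vehicle wells taken as 100%.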

SMILES: CC(=O)O[C@H]1C(=O)[C@@]2(C)[C@H]([C@H](OC(=O)c3ccccc3)[C@]3(O)C[C@H](OC(=O)[C@H](O)[C@@H](NC(=O)c4ccccc4)c4ccccc4)C(C)=C1C3(C)C)[C@]1(OC(C)=O)CO[C@@H]1C[C@@H]2O + CN(C)c1ccc(Nc2c3ccc(NC(=O)CCN4CCCC4)cc3nc3cc(NC(=O)CCN4CCCC4)ccc23)cc1
- pIC50 (second compound 0.0316 µM): > 7.50
- pIC50 (second compound 0.1 µM): > 7.50
- pIC50 (second compound 0.316 µM): > 7.50
- pIC50 (second compound 1 µM): > 7.50
- pIC50 (second compound 3.16 µM): > 7.50
- pIC50 (second compound 10 µM): > 7.50
- viability, T/C [1]: 46.5%
- viability, T/C [2]: 17%
- viability, T/C [3]: 12.4%
- viability, T/C [4]: 14.7%
- viability, T/C [5]: 11.4%
- viability, T/C [6]: 12.4%
- viability, T/C [7]: 39.5%
- viability, T/C [8]: 13.6%
- viability, T/C [9]: 12.5%
- viability, T/C [10]: 12.2%
- viability, T/C [11]: 10.4%
- viability, T/C [12]: 10.6%
- viability, T/C [13]: 25.9%
- viability, T/C [14]: 14%
- viability, T/C [15]: 9.98%
- viability, T/C [16]: 8.69%
- viability, T/C [17]: 10.2%
- viability, T/C [18]: 9.42%
- viability, T/C [19]: 21.7%
- viability, T/C [20]: 6.55%
- viability, T/C [21]: 5.24%
- viability, T/C [22]: 7.99%
- viability, T/C [23]: 6.09%
- viability, T/C [24]: 6.28%
- viability, T/C [25]: 9.14%
- viability, T/C [26]: 0.56%
- viability, T/C [27]: 0.37%
- viability, T/C [28]: 0.6%
- viability, T/C [29]: 1.62%
- viability, T/C [30]: 0.92%
- viability, T/C [31]: 0.91%
- viability, T/C [32]: 0.27%
- viability, T/C [33]: 0.18%
- viability, T/C [34]: 0.29%
- viability, T/C [35]: 0.25%
- viability, T/C [36]: 0.23%

SMILES: CC1COCCN1c1cc(C2(O)CC3CCC(C2)O3)c2cnn(-c3ccn[nH]3)c2n1 (centres undefined) + CN(C)c1ccc(Nc2c3ccc(NC(=O)CCN4CCCC4)cc3nc3cc(NC(=O)CCN4CCCC4)ccc23)cc1
- pIC50 (second compound 0.0316 µM): 7.43
- pIC50 (second compound 0.1 µM): > 7.50
- pIC50 (second compound 0.316 µM): > 7.50
- pIC50 (second compound 1 µM): > 7.50
- pIC50 (second compound 3.16 µM): > 7.50
- pIC50 (second compound 10 µM): > 7.50
- viability, T/C [1]: 54.7%
- viability, T/C [2]: 21.6%
- viability, T/C [3]: 16.4%
- viability, T/C [4]: 16.2%
- viability, T/C [5]: 12.9%
- viability, T/C [6]: 2.01%
- viability, T/C [7]: 50.5%
- viability, T/C [8]: 25.5%
- viability, T/C [9]: 18.2%
- viability, T/C [10]: 15.3%
- viability, T/C [11]: 11.1%
- viability, T/C [12]: 3.17%
- viability, T/C [13]: 44.2%
- viability, T/C [14]: 17.4%
- viability, T/C [15]: 12.6%
- viability, T/C [16]: 12.1%
- viability, T/C [17]: 12.8%
- viability, T/C [18]: 2.37%
- viability, T/C [19]: 23.5%
- viability, T/C [20]: 10.9%
- viability, T/C [21]: 8.42%
- viability, T/C [22]: 5.55%
- viability, T/C [23]: 7.51%
- viability, T/C [24]: 1.2%
- viability, T/C [25]: 15.1%
- viability, T/C [26]: 9.28%
- viability, T/C [27]: 6%
- viability, T/C [28]: 3.23%
- viability, T/C [29]: 4.27%
- viability, T/C [30]: 0.57%
- viability, T/C [31]: 4.09%
- viability, T/C [32]: 3.93%
- viability, T/C [33]: 2.46%
- viability, T/C [34]: 2.16%
- viability, T/C [35]: 2.2%
- viability, T/C [36]: 0.34%
